Source: patent publication US20040156869A1, “2-substituted quinazolin-4-ylamine analogues” (Neurogen Corporation, priority 2002, published 2004)

These molecules were tested against human capsaicin receptor (VR1) (Homo sapiens, UniProt Q8NER1) (assay: Capsaicin receptor binding assay ([3H]RTX competition, VR1-transfected HEK293 membranes)).
human capsaicin receptor (VR1), sequence (Q8NER1 whole entry): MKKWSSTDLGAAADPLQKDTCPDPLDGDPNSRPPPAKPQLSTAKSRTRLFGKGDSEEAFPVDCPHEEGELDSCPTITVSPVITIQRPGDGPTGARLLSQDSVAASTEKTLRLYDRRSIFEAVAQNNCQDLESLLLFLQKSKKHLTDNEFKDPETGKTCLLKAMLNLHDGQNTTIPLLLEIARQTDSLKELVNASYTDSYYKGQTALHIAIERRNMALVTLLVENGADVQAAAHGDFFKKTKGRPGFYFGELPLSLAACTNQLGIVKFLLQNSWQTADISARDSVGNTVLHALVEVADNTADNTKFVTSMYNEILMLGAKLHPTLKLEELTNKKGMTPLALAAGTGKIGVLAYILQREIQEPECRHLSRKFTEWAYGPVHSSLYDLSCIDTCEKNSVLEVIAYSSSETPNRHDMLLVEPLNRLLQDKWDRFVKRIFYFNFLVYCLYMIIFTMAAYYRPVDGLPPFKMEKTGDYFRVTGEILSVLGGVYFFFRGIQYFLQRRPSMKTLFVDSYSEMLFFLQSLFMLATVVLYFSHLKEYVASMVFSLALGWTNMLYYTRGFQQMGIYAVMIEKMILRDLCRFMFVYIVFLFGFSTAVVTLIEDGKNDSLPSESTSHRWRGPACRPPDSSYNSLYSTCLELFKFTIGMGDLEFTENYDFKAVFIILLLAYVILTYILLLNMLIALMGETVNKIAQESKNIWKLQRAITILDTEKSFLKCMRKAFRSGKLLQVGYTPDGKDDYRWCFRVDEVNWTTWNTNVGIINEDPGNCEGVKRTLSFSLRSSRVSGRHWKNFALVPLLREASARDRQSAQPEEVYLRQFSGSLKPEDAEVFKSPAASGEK

Row | SMILES | Ki [µM]
1 | C[C@@H]1CN(Cc2nc(Nc3ccc(Cl)cc3)c3ccc(-c4ncccc4C(F)(F)F)cc3n2)C[C@@H](C)O1 [Compound 654, (R,R)-(4-Chloro-phenyl)-[2-(2,6-dimethyl-morpholin-4-ylmethyl)-7-(3-trifluoromethyl-pyridin-2-yl)-quinazolin-4-yl]-amine] | < 1
2 | C=C(C)CN(CC)CCc1nc(Nc2ccc(C(F)(F)F)cc2)c2ccc(-c3ncccc3C(F)(F)F)cc2n1 [Compound 423, [2-{2-[Ethyl-(2-methyl-allyl)-amino]-ethyl}-7-(3-trifluoromethyl-pyridin-2-yl)-quinazolin-4-yl]-(4-trifluoromethyl-phenyl)-amine] | < 1
3 | CC(C)COCc1nc(Nc2ccc(C(F)(F)F)cc2)c2ccc(-c3ncccc3C(F)(F)F)nc2n1 [Compound 164, [2-Isobutoxymethyl-7-(3-trifluoromethyl-pyridin-2-yl)-pyrido[2,3-d]pyrimidin-4-yl]-(4-trifluoromethyl-phenyl)-amine] | < 1
4 | CC1CCCN(Cc2nc(Nc3ccc(C(F)(F)F)cc3)c3ccc(-c4ncccc4C(F)(F)F)cc3n2)C1 (stereo not drawn) [Compound 498, [2-(3-Methyl-piperidin-1-ylmethyl)-7-(3-yl)-quinazolin-4-yl]-(4-trifluoromethyl-phenyl)-amine] | < 1
5 | C[C@@H]1CN(Cc2nc(Nc3ccc(C(C)(C)C)cc3)c3ccc(-c4cncnc4)cc3n2)C[C@H](C)O1 [Compound 677, (4-tert-Butyl-phenyl)-[2-(2,6-dimethyl-morpholin-4-ylmethyl)-7-pyrimidin-5-yl-quinazolin-4-yl]-amine (cis)] | < 1
6 | CC1CC(C)CN(CCc2nc(Nc3ccc(C(F)(F)F)cc3)c3ccc(-c4ncccc4C(F)(F)F)cc3n2)C1 (stereo not drawn) [Compound 430, [2-(3,5-Dimethyl-piperidin-1-ylethyl)-7-(3-trifluoromethyl-pyridin-2-yl)-quinazolin-4-yl]-(4-trifluoromethyl-phenyl)-amine] | < 1
7 | OC1CCN(Cc2nc(Nc3ccc(C(F)(F)F)cc3)c3ccc(-c4ncccc4C(F)(F)F)cc3n2)CC1 [Compound 496, 1-[4-(4-Trifluoromethyl-phenylamino)-7-(3-trifluoromethyl-pyridin-2-yl)-quinazolin-2-ylmethyl]-piperidin-4-ol] | < 1
8 | COCc1nc2nc(-c3ncccc3C(F)(F)F)ccc2c(Nc2ccc(C(F)(F)F)cc2)c1C(=O)OC [Compound 299, 2-Methoxymethyl-4-(4-trifluoromethyl-phenylamino)-7-(3-trifluoromethyl-pyridin-2-yl)-[1,8]naphthyridine-3-carboxylic acid methyl ester] | < 1
9 | CC1CCCN1Cc1cc(Nc2ccc(C(F)(F)F)cc2)c2ccc(-c3ncccc3C(F)(F)F)nc2n1 (stereo not drawn) [Compound 774, [2-(2-Methyl-pyrrolidin-1-ylmethyl)-7-(3-trifluoromethyl-pyridin-2-yl)-[1,8]naphthyridin-4-yl]-(4-trifluoromethyl-phenyl)-amine] | < 1
10 | CC(C)COCc1nc(Nc2cccc(Cl)c2)c2ccc(-c3ncccc3C(F)(F)F)nc2n1 [Compound 271, (3-Chloro-phenyl)-[2-isobutoxymethyl-7-(3-trifluoromethyl-pyridin-2-yl)-pyrido[2,3-d]pyrimidin-4-yl]-amine] | < 1
11 | FC(F)(F)c1ccc(Nc2cc(CN3CC=CCC3)nc3nc(-c4ncccc4C(F)(F)F)ccc23)cc1 [Compound 816, [2-(3,6-Dihydro-2H-pyridin-1-ylmethyl)-7-(3-trifluoromethyl-pyridin-2-yl)-[1,8]naphthyridin-4-yl]-(4-trifluoromethyl-phenyl)-amine] | < 1
12 | Cc1cc(Nc2nc(COCC(C)C)nc3nc(-c4ncccc4C(F)(F)F)ccc23)ccc1C(F)(F)F [Compound 166, [2-Isobutoxymethyl-7-(3-trifluoromethyl-pyridin-2-yl)-pyrido[2,3-d]pyrimidin-4-yl]-(3-methyl-4-trifluoromethyl-phenyl)-amine] | < 1
